According to ChEMBL document CHEMBL1137831, “Synthesis and antibacterial activity of some aryloxy/thioaryloxy oxazolidinone derivatives” (2004):
In brackets after ≈: the same amount, converted by molar mass.

Experiments:
[1] = test system: Bacillus cereus; assay: Minimal inhibitory concentration against Bacillus cereus; assay type: functional
[2] = test system: Salmonella enterica subsp. enterica serovar Abony; assay: Minimal inhibitory concentration against Salmonella abony NCTC 6017; assay type: functional
[3] = test system: Staphylococcus epidermidis; assay: Minimal inhibitory concentration against Staphylococcus epidermidis ATCC 12228; assay type: functional
[4] = test system: Enterococcus faecalis; assay: Minimal inhibitory concentration against Enterococcus faecalis (VRE) ATCC 346-VRE; assay type: functional
[5] = test system: Enterococcus faecalis; assay: Minimal inhibitory concentration against Enterococcus faecalis ATCC 29212; assay type: functional
[6] = test system: Klebsiella pneumoniae; assay: Minimal inhibitory concentration against Klebsiella pneumoniae ATCC 15380; assay type: functional
[7] = test system: Staphylococcus aureus; assay: Minimal inhibitory concentration against Staphylococcus aureus ATCC 25923; assay type: functional
[8] = test system: Staphylococcus aureus; assay: Minimal inhibitory concentration against methicillin resistant Staphylococcus aureus ST450; value ranges from 2-4 ug/mL; assay type: functional
[9] = test system: Enterococcus faecium; assay: Minimal inhibitory concentration against Enterococcus faecium 6A-VRE; assay type: functional
[10] = test system: Escherichia coli; assay: Minimal inhibitory concentration against Escherichia coli ATCC 25922; assay type: functional
[11] = test system: Enterococcus durans; assay: Minimal inhibitory concentration against Enterococcus durans ATCC 581; assay type: functional
[12] = test system: Salmonella typhi; assay: Minimal inhibitory concentration against Salmonella typhi (MDR) ICH 098; assay type: functional, Salmonella enterica subsp. enterica serovar Typhi; settings: Salmonella enterica
[13] = test system: Serratia marcescens; assay: Minimal inhibitory concentration against Serratia marcescens ATCC 12999; assay type: functional
[14] = test system: Pseudomonas aeruginosa; assay: Minimal inhibitory concentration against Pseudomonas aeruginosa ATCC 27853; assay type: functional
[15] = test system: Staphylococcus epidermidis; assay: Minimal inhibitory concentration against methicillin resistant Staphylococcus epidermidis ATCC 23760; assay type: functional
[16] = test system: Staphylococcus aureus; assay: Minimal inhibitory concentration against methicillin resistant Staphylococcus aureus ST450; assay type: functional
[17] = test system: Staphylococcus aureus; assay: Minimal inhibitory concentration against Staphylococcus aureus ATCC 25923; value ranges from 4-8 ug/mL; assay type: functional
[18] = test system: Staphylococcus aureus; assay: Minimal inhibitory concentration against methicillin resistant Staphylococcus aureus ST450; value ranges from 4-8 ug/mL; assay type: functional
[19] = test system: Staphylococcus aureus; assay: Minimal inhibitory concentration against methicillin resistant Staphylococcus aureus ST450; value ranges from 1-2 ug/mL; assay type: functional

| SMILES | MIC [1] | MIC [2] | MIC [3] | MIC [4] | MIC [5] | MIC [6] | MIC [7] | MIC [8] | MIC [9] | MIC [10] | MIC [11] | MIC [12] | MIC [13] | MIC [14] | MIC [15] | MIC [16] | MIC [17] | MIC [18] | MIC [19] |
| --- | --- | --- | --- | --- | --- | --- | --- | --- | --- | --- | --- | --- | --- | --- | --- | --- | --- | --- | --- |
| CC(=O)Nc1ccc(Oc2ccc(N3C[C@H](C/N=C(\N)S)OC3=O)cc2F)cc1 | > 16 µg/mL | > 16 µg/mL | 2 µg/mL (≈ 4.78 µM) | 4 µg/mL (≈ 9.56 µM) | 4 µg/mL (≈ 9.56 µM) | > 16 µg/mL | 2 µg/mL (≈ 4.78 µM) | 4 µg/mL (≈ 9.56 µM) | 4 µg/mL (≈ 9.56 µM) | > 16 µg/mL | 2 µg/mL (≈ 4.78 µM) | > 16 µg/mL | > 16 µg/mL | > 16 µg/mL | 4 µg/mL (≈ 9.56 µM) | – | – | – | – |
| CC(=O)Nc1ccc(Oc2ccc(N3C[C@H](C/N=C(/S)N(C)C)OC3=O)cc2F)cc1 | > 16 µg/mL | > 16 µg/mL | 16 µg/mL (≈ 35.8 µM) | 16 µg/mL (≈ 35.8 µM) | 16 µg/mL (≈ 35.8 µM) | > 16 µg/mL | 16 µg/mL (≈ 35.8 µM) | – | > 16 µg/mL | > 16 µg/mL | 16 µg/mL (≈ 35.8 µM) | > 16 µg/mL | > 16 µg/mL | > 16 µg/mL | 16 µg/mL (≈ 35.8 µM) | 16 µg/mL (≈ 35.8 µM) | – | – | – |
| CC(=O)Nc1ccc(Sc2ccc(N3C[C@H](C/N=C(/S)NC4CC4)OC3=O)cc2F)cc1 | > 16 µg/mL | > 16 µg/mL | 8 µg/mL (≈ 16.9 µM) | > 16 µg/mL | 8 µg/mL (≈ 16.9 µM) | > 16 µg/mL | 16 µg/mL (≈ 33.7 µM) | – | 8 µg/mL (≈ 16.9 µM) | > 16 µg/mL | 8 µg/mL (≈ 16.9 µM) | > 16 µg/mL | > 16 µg/mL | > 16 µg/mL | 8 µg/mL (≈ 16.9 µM) | 16 µg/mL (≈ 33.7 µM) | – | – | – |
| CC(=O)NC[C@H]1CN(c2ccc(Oc3ccccc3NC(C)=O)c(F)c2)C(=O)O1 | > 16 µg/mL | > 16 µg/mL | > 16 µg/mL | > 16 µg/mL | > 16 µg/mL | > 16 µg/mL | > 16 µg/mL | – | > 16 µg/mL | > 16 µg/mL | > 16 µg/mL | > 16 µg/mL | > 16 µg/mL | > 16 µg/mL | > 16 µg/mL | > 16 µg/mL | – | – | – |
| CO/C(S)=N\C[C@H]1CN(c2ccc(Oc3ccc(NC(C)=O)cc3)c(F)c2)C(=O)O1 | > 16 µg/mL | > 16 µg/mL | 8 µg/mL (≈ 18.5 µM) | 8 µg/mL (≈ 18.5 µM) | 8 µg/mL (≈ 18.5 µM) | > 16 µg/mL | 8 µg/mL (≈ 18.5 µM) | – | 16 µg/mL (≈ 36.9 µM) | > 16 µg/mL | 8 µg/mL (≈ 18.5 µM) | > 16 µg/mL | > 16 µg/mL | > 16 µg/mL | 16 µg/mL (≈ 36.9 µM) | 16 µg/mL (≈ 36.9 µM) | – | – | – |
| CO/C(S)=N\C[C@H]1CN(c2ccc(Sc3ccc(NC(C)=O)cc3)c(F)c2)C(=O)O1 | > 16 µg/mL | > 16 µg/mL | 4 µg/mL (≈ 8.9 µM) | 8 µg/mL (≈ 17.8 µM) | 4 µg/mL (≈ 8.9 µM) | > 16 µg/mL | – | – | 4 µg/mL (≈ 8.9 µM) | > 16 µg/mL | 4 µg/mL (≈ 8.9 µM) | > 16 µg/mL | > 16 µg/mL | > 16 µg/mL | 8 µg/mL (≈ 17.8 µM) | – | 8 µg/mL (≈ 17.8 µM) | 8 µg/mL (≈ 17.8 µM) | – |
| CC(=O)NC[C@H]1CN(c2ccc(Oc3cccc(NC(C)=O)c3)c(F)c2)C(=O)O1 | > 16 µg/mL | > 16 µg/mL | > 16 µg/mL | > 16 µg/mL | > 16 µg/mL | > 16 µg/mL | > 16 µg/mL | – | > 16 µg/mL | > 16 µg/mL | > 16 µg/mL | > 16 µg/mL | > 16 µg/mL | > 16 µg/mL | > 16 µg/mL | > 16 µg/mL | – | – | – |
| CC(=O)NC[C@H]1CN(c2ccc(Oc3ccc(NC(C)=O)cc3)c(F)c2)C(=O)O1 | > 16 µg/mL | > 16 µg/mL | 2 µg/mL (≈ 4.98 µM) | 4 µg/mL (≈ 9.97 µM) | 4 µg/mL (≈ 9.97 µM) | > 16 µg/mL | 2 µg/mL (≈ 4.98 µM) | 4 µg/mL (≈ 9.97 µM) | 4 µg/mL (≈ 9.97 µM) | > 16 µg/mL | 4 µg/mL (≈ 9.97 µM) | > 16 µg/mL | > 16 µg/mL | > 16 µg/mL | 4 µg/mL (≈ 9.97 µM) | – | – | – | – |
| CC(=O)Nc1ccc(Sc2ccc(N3C[C@H](C/N=C(/S)NN)OC3=O)cc2F)cc1 | > 16 µg/mL | > 16 µg/mL | 4 µg/mL (≈ 8.9 µM) | 8 µg/mL (≈ 17.8 µM) | 4 µg/mL (≈ 8.9 µM) | > 16 µg/mL | 4 µg/mL (≈ 8.9 µM) | – | 16 µg/mL (≈ 35.6 µM) | > 16 µg/mL | 8 µg/mL (≈ 17.8 µM) | > 16 µg/mL | > 16 µg/mL | > 16 µg/mL | 4 µg/mL (≈ 8.9 µM) | – | – | 8 µg/mL (≈ 17.8 µM) | – |
| CC(=O)NC[C@H]1CN(c2ccc(Sc3ccc(NC(C)=O)cc3)c(F)c2)C(=O)O1 | > 16 µg/mL | > 16 µg/mL | 1 µg/mL (≈ 2.4 µM) | 2 µg/mL (≈ 4.79 µM) | 2 µg/mL (≈ 4.79 µM) | > 16 µg/mL | 1 µg/mL (≈ 2.4 µM) | – | 2 µg/mL (≈ 4.79 µM) | > 16 µg/mL | 2 µg/mL (≈ 4.79 µM) | > 16 µg/mL | > 16 µg/mL | > 16 µg/mL | 2 µg/mL (≈ 4.79 µM) | – | – | – | 2 µg/mL (≈ 4.79 µM) |
| CC(=O)Nc1ccc(Sc2ccc(N3C[C@H](C/N=C(/S)N(C)C)OC3=O)cc2F)cc1 | > 16 µg/mL | > 16 µg/mL | 16 µg/mL (≈ 34.6 µM) | 16 µg/mL (≈ 34.6 µM) | 8 µg/mL (≈ 17.3 µM) | > 16 µg/mL | 16 µg/mL (≈ 34.6 µM) | – | > 16 µg/mL | > 16 µg/mL | 16 µg/mL (≈ 34.6 µM) | > 16 µg/mL | > 16 µg/mL | > 16 µg/mL | 16 µg/mL (≈ 34.6 µM) | > 16 µg/mL | – | – | – |
| CC(=O)NC[C@H]1CN(c2ccc(N3CCOCC3)c(F)c2)C(=O)O1 [LINEZOLID] | > 16 µg/mL | > 16 µg/mL | 2 µg/mL (≈ 5.93 µM) | – | – | > 16 µg/mL | – | – | 2 µg/mL (≈ 5.93 µM) | > 16 µg/mL | 2 µg/mL (≈ 5.93 µM) | > 16 µg/mL | > 16 µg/mL | > 16 µg/mL | 2 µg/mL (≈ 5.93 µM) | – | – | – | – |
| CC(=O)Nc1ccc(Sc2ccc(N3C[C@H](C/N=C(\N)S)OC3=O)cc2F)cc1 | > 16 µg/mL | > 16 µg/mL | 1 µg/mL (≈ 2.3 µM) | 2 µg/mL (≈ 4.6 µM) | 2 µg/mL (≈ 4.6 µM) | > 16 µg/mL | 1 µg/mL (≈ 2.3 µM) | – | 2 µg/mL (≈ 4.6 µM) | > 16 µg/mL | 2 µg/mL (≈ 4.6 µM) | > 16 µg/mL | > 16 µg/mL | > 16 µg/mL | 2 µg/mL (≈ 4.6 µM) | – | – | – | 2 µg/mL (≈ 4.6 µM) |
| CC(=O)Nc1ccc(Oc2ccc(N3C[C@H](C/N=C(/S)NC4CC4)OC3=O)cc2F)cc1 | > 16 µg/mL | > 16 µg/mL | 16 µg/mL (≈ 34.9 µM) | 16 µg/mL (≈ 34.9 µM) | 8 µg/mL (≈ 17.4 µM) | > 16 µg/mL | > 16 µg/mL | – | > 16 µg/mL | > 16 µg/mL | 16 µg/mL (≈ 34.9 µM) | > 16 µg/mL | > 16 µg/mL | > 16 µg/mL | 16 µg/mL (≈ 34.9 µM) | 16 µg/mL (≈ 34.9 µM) | – | – | – |
